Toxic doses and inconclusive results are not listed. Cut-off read from the data, not from the text of the source: active = T/C of 150% or more; inactive = T/C below 125%.
Test system: L1210 leukemia ip in BDF1 mice, survival T/C
Assay: NCI In Vivo Anticancer Drug Screen. Data for tumor model L1210 Leukemia (intraperitoneal) in B6D2F1 (BDF1) mice
Conditions: endpoint: mean survival time, higher = longer survival
In short: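 Read-out is survival time, reported as the treated-group measurement over the vehicle-control measurement.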

[1] = dose: 100.0 mg/kg/injection, schedule: Q04DX002 (ip), vehicle: Klucel (hydroxypropylcellulose) (HPC)
[2] = dose: 200.0 mg/kg/injection, schedule: Q04DX002 (ip), vehicle: Klucel (hydroxypropylcellulose) (HPC)
[3] = dose: 400.0 mg/kg/injection, schedule: Q04DX002 (ip), vehicle: Klucel (hydroxypropylcellulose) (HPC)
[4] = dose: 50.0 mg/kg/injection, schedule: Q01DX009 (ip), vehicle: Klucel (hydroxypropylcellulose) (HPC)
[5] = dose: 100.0 mg/kg/injection, schedule: Q01DX009 (ip), vehicle: Klucel (hydroxypropylcellulose) (HPC)
[6] = dose: 200.0 mg/kg/injection, schedule: Q01DX009 (ip), vehicle: Klucel (hydroxypropylcellulose) (HPC)
[7] = dose: 400.0 mg/kg/injection, schedule: Q01DX009 (ip), vehicle: Klucel (hydroxypropylcellulose) (HPC)
[8] = dose: 100.0 mg/kg/injection, schedule: Q01DX001 (ip), vehicle: saline
[9] = dose: 200.0 mg/kg/injection, schedule: Q01DX001 (ip), vehicle: saline
[10] = dose: 400.0 mg/kg/injection, schedule: Q01DX001 (ip), vehicle: saline
[11] = dose: 100.0 mg/kg/injection, schedule: Q04DX003 (ip), vehicle: Klucel (hydroxypropylcellulose) (HPC)
[12] = dose: 200.0 mg/kg/injection, schedule: Q04DX003 (ip), vehicle: Klucel (hydroxypropylcellulose) (HPC)
[13] = dose: 400.0 mg/kg/injection, schedule: Q04DX003 (ip), vehicle: Klucel (hydroxypropylcellulose) (HPC)
[14] = dose: 100.0 mg/kg/injection, schedule: Q04DX003 (ip), vehicle: saline with Tween-80
[15] = dose: 200.0 mg/kg/injection, schedule: Q04DX003 (ip), vehicle: saline with Tween-80

Measured: T/C

OC(c1ccc(Cl)cc1)c1nc2ccccc2[nH]1 (stereo not given)
inactive: [1] 100 % of control | [2] 100 % of control | [3] 103 % of control

CCOC(=O)C(C)(C)CO
inactive: dose: 200.0 mg/kg/injection, schedule: Q04DX003 (ip), vehicle: saline sonified 103 % of control | dose: 400.0 mg/kg/injection, schedule: Q04DX003 (ip), vehicle: saline sonified 93 % of control | dose: 800.0 mg/kg/injection, schedule: Q04DX003 (ip), vehicle: saline sonified 101 % of control

CC(=O)OC1CCC(CC2CCCCC2)CC1 (stereo not given)
inactive: [4] 94 % of control | [5] 100 % of control | [6] 100 % of control | [7] 93 % of control

Cc1c(Cl)c(Cl)c(NS(=O)(=O)c2ccccc2)c(NS(=O)(=O)c2ccccc2)c1Cl
inactive: [5] 95 % of control | [6] 103 % of control | [7] 100 % of control

[O-][N+](CCO)(CCO)Cc1ccccc1
inactive: dose: 50.0 mg/kg/injection, schedule: Q01DX001 (ip), vehicle: saline 103 % of control | [8] 103 % of control | [9] 103 % of control | [10] 101 % of control

Cc1cn2nnnc2nc1-c1ccccc1O
inactive: [1] 98 % of control | [2] 91 % of control | [3] 94 % of control

CCc1nc(N[N+](=O)[O-])nc(CC)c1-c1ccc([N+](=O)[O-])cc1O
inactive: dose: 100.0 mg/kg/injection, schedule: Q04DX002 (ip), vehicle: saline with Tween-80 97 % of control | dose: 200.0 mg/kg/injection, schedule: Q04DX002 (ip), vehicle: saline with Tween-80 87 % of control | dose: 400.0 mg/kg/injection, schedule: Q04DX002 (ip), vehicle: saline with Tween-80 95 % of control

Cc1ccc(S(=O)(=O)N2CCCC(=O)c3ccc(Cl)cc32)cc1
inactive: [5] 101 % of control | [11] 96 % of control | [6] 104 % of control | [12] 100 % of control | [7] 95 % of control | [13] 91 % of control

CN(C)C1c2ccccc2-c2cccc(C(=O)O)c21 (stereo not given)
inactive: [8] 108 % of control | [9] 103 % of control | [10] 103 % of control

CCOC(=O)c1ccc(NC(=O)c2cccc(Cl)c2)cc1
inactive: [1] 94 % of control

COC1=CC(C)(C)c2ccccc2C1=O
inactive: dose: 50.0 mg/kg/injection, schedule: Q01DX009 (ip), vehicle: saline sonified 97 % of control | dose: 100.0 mg/kg/injection, schedule: Q01DX009 (ip), vehicle: saline sonified 99 % of control | [11] 97 % of control | dose: 200.0 mg/kg/injection, schedule: Q01DX009 (ip), vehicle: saline sonified 97 % of control | [12] 115 % of control | [13] 97 % of control

O=[N+]([O-])c1ccc(Cc2ccc([N+](=O)[O-])cc2)cc1
inactive: [14] 102 % of control | [15] 109 % of control | dose: 400.0 mg/kg/injection, schedule: Q04DX003 (ip), vehicle: saline with Tween-80 98 % of control

CC1(c2ccc(O)cc2)CCC(C(C)(C)c2ccc(O)cc2)CC1 (stereo not given)
inactive: dose: 100.0 mg/kg/injection, schedule: Q01DX009 (ip), vehicle: saline with Tween-80 107 % of control | dose: 200.0 mg/kg/injection, schedule: Q01DX009 (ip), vehicle: saline with Tween-80 107 % of control

Cc1cccc(N=P(c2ccccc2)(c2ccccc2)c2ccccc2)c1
inactive: [4] 96 % of control | [5] 88 % of control | [11] 95 % of control | [12] 96 % of control

CSc1ncnc2nncnc12
inactive: dose: 5.0 mg/kg/injection, schedule: Q01DX001 (ip), vehicle: other 104 % of control | dose: 10.0 mg/kg/injection, schedule: Q01DX001 (ip), vehicle: other 106 % of control | dose: 20.0 mg/kg/injection, schedule: Q01DX001 (ip), vehicle: other 101 % of control | dose: 40.0 mg/kg/injection, schedule: Q01DX001 (ip), vehicle: other 98 % of control

CC1(C)C2CCC1(C)C(/C=N/NC(N)=O)C2 (stereo not given)
inactive: dose: 100.0 mg/kg/injection, schedule: Q01DX001 (ip), vehicle: Klucel (hydroxypropylcellulose) (HPC) 94 % of control | dose: 200.0 mg/kg/injection, schedule: Q01DX001 (ip), vehicle: Klucel (hydroxypropylcellulose) (HPC) 102 % of control | dose: 400.0 mg/kg/injection, schedule: Q01DX001 (ip), vehicle: Klucel (hydroxypropylcellulose) (HPC) 105 % of control

NC1C2CC3CC1CC(C2)O3 (stereo not given)
inactive: dose: 25.0 mg/kg/injection, schedule: Q04DX002 (ip), vehicle: saline 103 % of control | dose: 50.0 mg/kg/injection, schedule: Q04DX002 (ip), vehicle: saline 106 % of control | dose: 100.0 mg/kg/injection, schedule: Q04DX002 (ip), vehicle: saline 106 % of control

N#CCCSCCc1ccccc1
inactive: dose: 75.0 mg/kg/injection, schedule: Q01DX009 (ip), vehicle: saline with Tween-80 91 % of control | dose: 150.0 mg/kg/injection, schedule: Q01DX009 (ip), vehicle: saline with Tween-80 96 % of control

CCCCCCc1c(N)nc(N)[nH]c1=O
inactive: dose: 100.0 mg/kg/injection, schedule: Q01DX001 (ip), vehicle: saline with Tween-80 98 % of control | dose: 200.0 mg/kg/injection, schedule: Q01DX001 (ip), vehicle: saline with Tween-80 89 % of control | dose: 400.0 mg/kg/injection, schedule: Q01DX001 (ip), vehicle: saline with Tween-80 98 % of control

O=C(O)/C=C/C(=O)Nc1cccc(NC(=O)/C=C/C(=O)O)c1
inactive: [11] 94 % of control | [12] 97 % of control | [13] 96 % of control

OCCCN1CCN(CCCC2c3ccccc3Sc3ccc(Cl)cc32)CC1 (stereo not given)
inactive: dose: 25.0 mg/kg/injection, schedule: Q04DX003 (ip), vehicle: saline 102 % of control | dose: 50.0 mg/kg/injection, schedule: Q04DX003 (ip), vehicle: saline 109 % of control

O=C(/C=C\c1ccccc1)/C=C/c1ccccc1
inactive: [5] 90 % of control | dose: 100.0 mg/kg/injection, schedule: Q01DX009 (sc), vehicle: olive oil, sesame oil, peanut oil 113 % of control | [11] 95 % of control | [6] 95 % of control | dose: 200.0 mg/kg/injection, schedule: Q01DX009 (sc), vehicle: olive oil, sesame oil, peanut oil 98 % of control | [12] 98 % of control | dose: 400.0 mg/kg/injection, schedule: Q01DX009 (sc), vehicle: olive oil, sesame oil, peanut oil 102 % of control | [13] 98 % of control

O=c1[nH]cc(CC(F)C(F)(F)F)c(=O)[nH]1 (stereo not given)
inactive: dose: 60.0 mg/kg/injection, schedule: Q01DX001 (ip), vehicle: DMSO 91 % of control | dose: 120.0 mg/kg/injection, schedule: Q01DX001 (ip), vehicle: DMSO 105 % of control

CCO/C(C)=N/c1n[n+]([O-])ccc1C
inactive: dose: 40.0 mg/kg/injection, schedule: Q04DX002 (ip), vehicle: saline 104 % of control | dose: 80.0 mg/kg/injection, schedule: Q04DX002 (ip), vehicle: saline 96 % of control | dose: 160.0 mg/kg/injection, schedule: Q04DX002 (ip), vehicle: saline 104 % of control

C=CCOC(=O)COCC(=O)OCC=C
inactive: dose: 100.0 mg/kg/injection, schedule: Q04DX003 (ip), vehicle: saline 97 % of control | dose: 200.0 mg/kg/injection, schedule: Q04DX003 (ip), vehicle: saline 88 % of control

CC1(C)CC(C)(c2ccc(O)cc2)Oc2ccccc21 (stereo not given)
inactive: [14] 93 % of control | [15] 89 % of control
